Data as given in patent publication US20040019022A1, “Use of 2,3 alkylcarbonyloxybenzoic acids, derivatives and analogues therefrom in the treatment of tissue and cellular dysfunction, damage and injury in mammals” (priority 2002, published 2004).

How the values were obtained:
[1] = test system: rat model of cecal ligation and perforation (CLP)-induced sepsis; assay: Awake rat model of cecal ligation and perforation (CLP)-induced sepsis, acute lung injury; format: in vivo
From the text: An awake rat model of cecal ligation and perforation (CLP)-induced sepsis was employed to examine the therapeutic effect of 2,3-diacetoxybenzoic acid in sepsis induced acute lung injury. Oxidative stress resulting in increased lung permeability is characteristic of the onset and progression of acute lung injury in this model. […] 2,3-Diacetoxybenzoic acid treated animals appeared to have improvement in sepsis-associated symptoms such as lethargy, diarrhea, anorexia, and abdomenal distention.

[2] = test system: guinea pigs administered aerosolized LPS; assay: Aerosolized LPS exposure in guinea pigs, bronchoalveolar lavage (BAL) 24 h after LPS; format: in vivo; settings: guinea pig
Experimental: The potential therapeutic effect of 2,3-alkylcarbonyloxybenzoic acids is exemplified by data generated in the study of 2,3-diacetoxybenzoic acid in guinea pigs. 2,3-diacetoxybenzoic acid was administered via intra-peritoneal injection to guinea pigs administered aerosolized LPS. Each animal was treated with 150 mg/kg of 2,3-diacetoxybenzoic acid or vehicle 1 hour prior to and 4 hours following LPS administration. Twenty four hours following administration of LPS, bronchoalveolar lavage (BAL) was performed. Intra-peritoneal administration of 2,3-diacetoxybenzoic acid appeared to have no effect on LPS-induced neutrophil recruitment into the lung. However, 2,3-diacetoxybenzoic acid treatment did produce a statistically significant reduction in albumin leakage (44%), a component of LPS-induced edema formation indicating a decrease in lung vascular permeability.

[3] = 2.5 mg/kg/h continuous infusion
[4] = 2.5 mg/kg/h continuous infusion from 1 h to 24 h after induction of sepsis, 24 hours, mean ± SEM
[5] = 150 mg/kg i.p. 1 h prior to and 4 h post LPS, BAL 24 h after LPS, mean ± SEM, n = 5

Compound: CC(=O)Oc1cccc(C(=O)O)c1OC(C)=O [DABA, 2,3-diacetoxybenzoic acid]
- body temperature [1, 3]: normalized
- cardiac output [1, 3]: normalized
- respiratory rate [1, 3]: normalized
- sepsis-associated symptoms such as lethargy, diarrhea, anorexia, and abdomenal distention [1, 3]: improvement
- lung microvascular permeability increases ([1]; 2.5 mg/kg/h continuous infusion from 1 h to 24 h after induction of sepsis): reduced
- Systemic WBC, 1 hour ([1]; 2.5 mg/kg/h continuous infusion from 1 h to 24 h after induction of sepsis, 1 hour, mean ± SEM): 6.7 ± 1.1 ×10^9/liter
- BAL WBC, 24 hours [1, 4]: 0.04 ± 0.02 ×10^9/liter
- BAL protein, 24 hours [1, 4]: 1.45 ± 1.73 mg/dL
- Systemic WBC, 24 hours [1, 4]: 3.6 ± 1.4 ×10^9/liter
- effect on LPS-induced neutrophil recruitment into the lung ([2]; 150 mg/kg i.p. 1 h prior to and 4 h following LPS): no effect
- reduction in albumin leakage ([2]; 150 mg/kg i.p. 1 h prior to and 4 h following LPS, versus vehicle, statistically significant): 44%
- Albumin (BAL fluid) [2, 5]: 605 ± 78 μg/mL BALF
- Neutrophil (BAL fluid) [2, 5]: 80 ± 11 ×10^6/mL BALF
- Total Cell (BAL fluid) [2, 5]: 112 ± 14 ×10^6/mL BALF
